Results published in ChEMBL document CHEMBL5236548, “Marine Natural Products: A Potential Source of Anti-hepatocellular Carcinoma Drugs” (J Med Chem, 2021).

Tests used:
SMMC-7721 [1] = experiment: Induction of cell cycle arrest in human SMMC-7721 cells assessed as accumulation of cells at G0/G1 phase at 200 nM incubated for 24 hrs relative to control; assay type: functional
SMMC-7721 [2] = experiment: Induction of cell cycle arrest in human SMMC-7721 cells assessed as accumulation of cells at G0/G1 phase at 100 nM incubated for 24 hrs relative to control; assay type: functional
SMMC-7721 [3] = experiment: Induction of cell cycle arrest in human SMMC-7721 cells assessed as accumulation of cells at G0/G1 phase at 50 nM incubated for 24 hrs relative to control; assay type: functional
PLC-PRF-5 [4] = experiment: Induction of cell cycle arrest in human PLC-PRF-5 cells assessed as accumulation of cells at G0/G1 phase at 200 nM incubated for 24 hrs relative to control; assay type: functional
PLC-PRF-5 [5] = experiment: Induction of cell cycle arrest in human PLC-PRF-5 cells assessed as accumulation of cells at G0/G1 phase at 100 nM incubated for 24 hrs relative to control; assay type: functional
PLC-PRF-5 [6] = experiment: Induction of cell cycle arrest in human PLC-PRF-5 cells assessed as accumulation of cells at G0/G1 phase at 50 nM incubated for 24 hrs relative to control; assay type: functional
SMMC-7721 [7] = experiment: Antitumor activity against human SMMC-7721 cells xenografted in mouse assessed as reduction in tumor growth at 25 microg/kg administered daily for 40 days relative to control; assay type: functional; design: scale not given: the % may be the effect or the level left; settings: dose 25 µg/kg; time 40 day
SMMC-7721 [8] = experiment: Antitumor activity against human SMMC-7721 cells xenografted in mouse assessed as reduction in tumor growth at 50 microg/kg administered daily for 40 days relative to control; assay type: functional; design: scale not given: the % may be the effect or the level left; settings: dose 50 µg/kg; time 40 day
HepG2 [9] = experiment: Cytotoxicity against human HepG2 cells measured after 1 hr by SRB assay; assay type: functional, cell-based; settings: HepG2, 1 h
[10] = Cytotoxicity against human Huh-7D12 cells measured after 1 hr by SRB assay; assay type: functional, cell-based; settings: Huh-7D12, 1 h
Hep 3B2 [11] = experiment: Cytotoxicity against human Hep3B cells measured after 1 hr by SRB assay; assay type: functional, cell-based
SK-HEP1 = experiment: Cytotoxicity against human SK-HEP1 cells measured after 1 hr by SRB assay; assay type: functional, cell-based; settings: SK-HEP1, 1 h
PLC-PRF-5 [12] = experiment: Cytotoxicity against human PLC-PRF-5 cells measured after 1 hr by SRB assay; assay type: functional, cell-based; settings: PLC-PRF-5, 1 h
[13] = Cytotoxicity against human HCC cells by SRB assay; assay type: functional, cell-based
Bel-7402 [14] = experiment: Cytotoxicity against human Bel-7402 cells by SRB assay; assay type: functional, cell-based
SMMC-7721 [15] = experiment: Cytotoxicity against human SMMC-7721 cells assessed as reduction in cell viability by SRB assay; assay type: functional, cell-based
[16] = Cytotoxicity against human Zip177 cells by SRB assay; assay type: functional, cell-based
Hep 3B2 [17] = experiment: Cytotoxicity against human Hep3B cells by SRB assay; assay type: functional, cell-based
[18] = Antitumor activity against human HCCLM3 cells xenografted in BALB/c nude mouse assessed as inhibition of tumor growth at 20 mg/kg measured for 14 days relative to control; assay type: functional; settings: HCCLM3, 336 h, time 14 day
[19] = Antitumor activity against human HCCLM3 cells xenografted in BALB/c nude mouse assessed as reduction in Ki67 at 20 mg/kg measured for 14 days (reference value: 41.67+/-7.22% ); assay type: functional; design: scale not given: the % may be the effect or the level left; settings: time 14 day
[20] = […] of cell cycle arrest in human HCCLM3 cells assessed as accumulation of cells at S phase at 25 uM relative to control; assay type: functional; design: scale not given: the % may be the effect or the level left
[21] = […] of cell cycle arrest in human HCCLM3 cells assessed as accumulation of cells at G2/M phase at 25 uM relative to control; assay type: functional; design: scale not given: the % may be the effect or the level left
[22] = […] of cell cycle arrest in human HepG2 cells assessed as accumulation of cells at S phase at 50 uM relative to control; assay type: functional; design: scale not given: the % may be the effect or the level left
[23] = […] of cell cycle arrest in human HepG2 cells assessed as accumulation of cells at G2/M phase at 50 uM relative to control; assay type: functional; design: scale not given: the % may be the effect or the level left
H22 [24] = experiment: Antitumor activity against […] cells xenografted in mouse assessed as reduction in tumor volume at 2 mg/kg, ip administered daily for 21 days by caliper method relative to control; assay type: functional; design: scale not given: the % may be the effect or the level left; settings: time 21 day
Bel-7402 [25] = experiment: Antitumor activity against human Bel-7402 cells xenografted in mouse assessed as reduction in tumor volume at 2 mg/kg, ip administered daily for 21 days by caliper method relative to control; assay type: functional; design: scale not given: the % may be the effect or the level left; settings: time 21 day
[26] = Half life in Kunming mouse at 15 to 30 mg/kg measured upto 240 mins; assay type: ADME, organism-based; settings: in vivo, dose 15-30 mg/kg
SMMC-7721 [27] = experiment: Cytotoxicity against human SMMC-7721 cells incubated for 72 hrs by SRB assay; assay type: functional, cell-based; settings: SMMC-7721, 72 h
Bel-7402 [28] = experiment: Cytotoxicity against human Bel-7402 cells incubated for 72 hrs by SRB assay; assay type: functional, cell-based; settings: Bel-7402, 72 h
H22 [29] = experiment: Antitumor activity against […] cells xenografted in mouse assessed as reduction in tumor volume at 5 mg/kg, ip measured after 21 days by caliper method relative to control; assay type: functional; design: scale not given: the % may be the effect or the level left; settings: time 21 day
H22 [30] = experiment: Antitumor activity against […] cells xenografted in mouse assessed as reduction in tumor volume at 15 mg/kg, ip measured after 21 days by caliper method relative to control; assay type: functional; design: scale not given: the % may be the effect or the level left; settings: time 21 day
H22 [31] = experiment: Antitumor activity against […] cells xenografted in mouse assessed as reduction in tumor volume at 45 mg/kg, ip measured after 21 days by caliper method relative to control; assay type: functional; design: scale not given: the % may be the effect or the level left; settings: time 21 day
Bel-7402 [32] = experiment: Antitumor activity against human Bel-7402 cells xenografted in mouse assessed as reduction in tumor volume at 7 mg/kg, ip administered daily for 21 days by caliper method relative to control; assay type: functional; design: scale not given: the % may be the effect or the level left; settings: time 21 day
Bel-7402 [33] = experiment: Antitumor activity against human Bel-7402 cells xenografted in mouse assessed as reduction in tumor volume at 14 mg/kg, ip administered daily for 21 days by caliper method relative to control; assay type: functional; design: scale not given: the % may be the effect or the level left; settings: time 21 day
Bel-7402 [34] = experiment: Antitumor activity against human Bel-7402 cells xenografted in mouse assessed as reduction in tumor volume at 28 mg/kg, ip administered daily for 21 days by caliper method relative to control; assay type: functional; design: scale not given: the % may be the effect or the level left; settings: time 21 day
HepG2 [35] = experiment: Antiproliferative activity against human HepG2 cells assessed as reduction in cell viability at 50 ug/ml measured after 24 hrs relative to control; assay type: functional, cell-based; settings: HepG2, 24 h

Work on `CCC/C=C/C=C/C(=O)O[C@H]1/C(=C/C(=O)OC)C[C@H]2C[C@H]([C@@H](C)O)OC(=O)C[C@H](O)C[C@@H]3C[C@H](OC(C)=O)C(C)(C)[C@](O)(C[C@@H]4C/C(=C/C(=O)OC)C[C@H](/C=C/C(C)(C)[C@]1(O)O2)O4)O3` [BRYOSTATIN 1] yielded an Activity (SMMC-7721 [1]) of 56%, an Activity (SMMC-7721 [2]) of 44% and an Activity (SMMC-7721 [3]) of 37%. For the same molecule, the Activity (PLC-PRF-5 [4]) was 54%, the Activity (PLC-PRF-5 [5]) was 40% and the Activity (PLC-PRF-5 [6]) was 34%. For the same molecule, the Activity (SMMC-7721 [7]) was 32% and the Activity (SMMC-7721 [8]) was 39%.

Molecule `C/C=C1/NC(=O)[C@H](Cc2ccccc2)NC(=O)[C@@H](C(C)C)NC(=O)[C@@H]([C@@H](C)CC)NC(=O)[C@H](NC(=O)[C@H](NC(=O)[C@H](CCCN)NC(=O)[C@H]2CCCN2C(=O)[C@H](NC(=O)[C@@H](NC(=O)[C@@H](NC(=O)[C@H](NC(=O)CCCC(C)C)C(C)C)[C@@H](C)O)C(C)C)C(C)C)[C@@H](C)CC)[C@@H](C)OC(=O)[C@H](C(C)C)NC1=O` has an IC50 (HepG2 [9]) of 300 nM, an IC50 [10] of 300 nM and an IC50 (Hep 3B2 [11]) of 350 nM. It also gave an IC50 (SK-HEP1) of 2400 nM and an IC50 (PLC-PRF-5 [12]) of 5.3 µM.

Molecule `COC(=O)[C@H](CCCC(C)C)[C@H]1CC[C@H]2[C@@H]3CC[C@H]4CC(=O)C=C[C@]4(C)[C@H]3CC[C@]12C` [METHYL SPONGOATE] has an IC50 [13] of 4.4 µM, an IC50 (Bel-7402 [14]) of 1700 nM and an IC50 (SMMC-7721 [15]) of 2000 nM. The IC50 [16] was 3000 nM and the IC50 (Hep 3B2 [17]) was 5 µM.

Work on `COc1cc2ccnc3c2c(c1OC)NC=C3` [AAPTAMINE] yielded an inhibition in vivo at 20 mg/kg [18] of 40.3%, an Activity [19] of 72.2% and an Activity [20] of 50%. The Activity [21] was 50%, the Activity [22] was 50% and the Activity [23] was 50%.

Work on `COc1cccc2c1C(=O)c1c(O)c3c(c(O)c1C2=O)C[C@@](O)(C(=O)CO)C[C@@H]3O[C@H]1C[C@H](N)[C@H](O)[C@H](C)O1.Cl` [DOXORUBICIN HYDROCHLORIDE] yielded an Activity (H22 [24]) of 51.9%, an Activity (Bel-7402 [25]) of 73.5% and a half-life [26] of 1380 min.

Work on `Cc1cc(O)cc(O)c1OC1C(=O)Oc2c(C)cc(O)c3c2C1c1cc(O)cc(O)c1C3=O` (configuration not stated) yielded an IC50 (SMMC-7721 [27]) of under 4 µM, an IC50 (Bel-7402 [28]) of under 6 µM and an Activity (H22 [29]) of 55%. The Activity (H22 [30]) was 62%, the Activity (H22 [31]) was 66% and the Activity (Bel-7402 [32]) was 48.8%. It also gave an Activity (Bel-7402 [33]) of 51.2%, an Activity (Bel-7402 [34]) of 59.9% and a half-life [26] of 40 min.

With H-RIRDAIAHGYIVDKV-OH the IC50 (HepG2 [35]) was 28.3 µM.
